The subject of this test is naïve human CD4+ T-cells and dendritic cells. It counts as cell-based. To be noted: for T-cell epitope designation: Ber e 1 dataset, background 4.27%.

These results are taken from patent publication US20040209312A1, “Identifying and reducing the allergenicity of food proteins” (priority 2001, published 2004).

Consider “tetanus toxoid: positive control antigen in the T-cell proliferation assay [reference compound]”, for which the “positive control response (T-cell proliferation)” value (positive control antigen in all tests reported) is on record as “robust positive control responses”.

Consider LRMMMMRMQQEEMQP [Peptide # 16], for which the T-cell epitope designation entry (5 μM peptide) is on record as “does not reach any epitope designation”.

Take MQPRGEQMRRMMRLA [peptide #20]: the T-cell epitope designation result (5 μM peptide) was “minor epitopes”.

With LEGMDESCRCEGLRM [peptide #12], the T-cell epitope designation entry (5 μM peptide) is given as “minor epitopes”.

RQQMLSHCRMYMRQQ [peptide #4]: the “percentage of the donor pool that responded with a baseline-normalized response of 2.95 or better (percent responders)” value (Ber e 1 15-mer peptide set, 5 μM peptide, human donors) is 18.48%. Also, for the setting “5 μM peptide”, the T-cell epitope designation entry is given as “reached the three-fold cut-off”.
